Results from PubChem BioAssay AID330 (DTP/NCI, 2004).
Several values for one entry are separate records, joined by “and”; a condition that tells them apart may be missing. Equal entries are not always repeated. Toxic doses and inconclusive results are not listed. The calls were made as follows: active = survival T/C of 150% or more; inactive = T/C below 125% in these data.

Test system: P388 leukemia ip, CD2F1 mice, survival T/C
Assay: NCI In Vivo Anticancer Drug Screen. Data for tumor model P388 Leukemia (intraperitoneal) in CD2F1 (CDF1) mice
Settings: endpoint: median survival time, higher = longer survival
How it was run: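 Mice carrying the transplanted tumor received test compound or vehicle. Survival was recorded in each group, and the value is the treated-group measurement divided by that of the vehicle-treated control group.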

[1] = dose: 50.0 mg/kg/injection, schedule: Q01DX005 (ip), vehicle: Klucel (hydroxypropylcellulose) (HPC)
[2] = dose: 100.0 mg/kg/injection, schedule: Q01DX005 (ip), vehicle: Klucel (hydroxypropylcellulose) (HPC)
[3] = dose: 50.0 mg/kg/injection, schedule: Q01DX009 (ip), vehicle: saline with Tween-80
[4] = dose: 100.0 mg/kg/injection, schedule: Q01DX009 (ip), vehicle: saline with Tween-80
[5] = dose: 100.0 mg/kg/injection, schedule: Q04DX003 (ip), vehicle: saline with Tween-80
[6] = dose: 200.0 mg/kg/injection, schedule: Q01DX009 (ip), vehicle: saline with Tween-80
[7] = dose: 200.0 mg/kg/injection, schedule: Q04DX003 (ip), vehicle: saline with Tween-80
[8] = dose: 400.0 mg/kg/injection, schedule: Q04DX003 (ip), vehicle: saline with Tween-80
[9] = dose: 50.0 mg/kg/injection, schedule: Q01DX005 (ip), vehicle: saline with Tween-80
[10] = dose: 100.0 mg/kg/injection, schedule: Q01DX005 (ip), vehicle: saline with Tween-80
[11] = dose: 200.0 mg/kg/injection, schedule: Q01DX005 (ip), vehicle: saline with Tween-80
[12] = dose: 50.0 mg/kg/injection, schedule: Q01DX009 (ip), vehicle: saline
[13] = dose: 100.0 mg/kg/injection, schedule: Q01DX009 (ip), vehicle: saline
[14] = dose: 200.0 mg/kg/injection, schedule: Q01DX009 (ip), vehicle: saline
[15] = dose: 60.0 mg/kg/injection, schedule: Q01DX005 (ip), vehicle: Klucel (hydroxypropylcellulose) (HPC)
[16] = dose: 120.0 mg/kg/injection, schedule: Q01DX005 (ip), vehicle: Klucel (hydroxypropylcellulose) (HPC)
[17] = dose: 240.0 mg/kg/injection, schedule: Q01DX005 (ip), vehicle: Klucel (hydroxypropylcellulose) (HPC)
[18] = dose: 12.5 mg/kg/injection, schedule: Q01DX005 (ip), vehicle: Klucel (hydroxypropylcellulose) (HPC)
[19] = dose: 25.0 mg/kg/injection, schedule: Q01DX005 (ip), vehicle: Klucel (hydroxypropylcellulose) (HPC)
[20] = dose: 50.0 mg/kg/injection, schedule: Q01DX009 (ip), vehicle: Klucel (hydroxypropylcellulose) (HPC)
[21] = dose: 100.0 mg/kg/injection, schedule: Q01DX009 (ip), vehicle: Klucel (hydroxypropylcellulose) (HPC)
[22] = dose: 25.0 mg/kg/injection, schedule: Q04DX003 (ip), vehicle: Klucel (hydroxypropylcellulose) (HPC)
[23] = dose: 50.0 mg/kg/injection, schedule: Q04DX003 (ip), vehicle: Klucel (hydroxypropylcellulose) (HPC)
[24] = dose: 100.0 mg/kg/injection, schedule: Q04DX003 (ip), vehicle: Klucel (hydroxypropylcellulose) (HPC)
[25] = dose: 50.0 mg/kg/injection, schedule: Q01DX005 (ip), vehicle: saline
[26] = dose: 60.0 mg/kg/injection, schedule: Q01DX005 (ip), vehicle: saline with Tween-80
[27] = dose: 120.0 mg/kg/injection, schedule: Q01DX005 (ip), vehicle: saline with Tween-80
[28] = dose: 240.0 mg/kg/injection, schedule: Q01DX005 (ip), vehicle: saline with Tween-80

Measured: T/C

O=c1c2oc3ccccc3c2cnn1CCl
inactive: [1] 103 % of control | [2] 103 % of control | dose: 200.0 mg/kg/injection, schedule: Q01DX005 (ip), vehicle: Klucel (hydroxypropylcellulose) (HPC) 96 % of control

ClC(Cl)(Cl)C1OCCO1
inactive: [3] 95 % of control | [4] 104 % of control | [5] 100 % of control | [6] 90 % of control | [7] 90 % of control | [8] 95 % of control

COC1OC2COC(c3ccccc3)OC2C(N)C1O (centres undefined)
inactive: [9] 106 % of control | [10] 101 % of control | [11] 104 % of control

CCOC(=O)C(Br)(C(=O)OCC)C(C)C
inactive: [12] 111 % of control | [13] 109 % of control | [14] 120 % of control

CC(C)CC1N=C(NN=C(CCl)CCl)SP1(=O)NCCCCCCNP1(=O)SC(NN=C(CCl)CCl)=NC1CC(C)C (centres undefined)
inactive: [15] 100 % of control | [16] 103 % of control | [17] 102 % of control

CCC(=C(c1ccc(OCCN(C)C)cc1)c1cccc(O)c1)c1ccccc1 (mixture of isomers)
inactive: [15] 104 % of control | [16] 107 % of control

COc1cc([C@H]2OC[C@H]3[C@@H]2CO[C@@H]3c2ccc(OC(C)=O)c(OC)c2)ccc1OC(C)=O
inactive: [18] 96 % of control | [19] 93 % of control | [1] 86 % of control

CC1(C)CC(=O)C2=C(C1)Nn1c(nnc1C(F)(F)F)S2
inactive: [3] 102 % of control | [4] 110 % of control | [6] 105 % of control

O=C(O)c1ccc([N+](=O)[O-])o1
inactive: dose: 25.0 mg/kg/injection, schedule: Q01DX009 (ip), vehicle: Klucel (hydroxypropylcellulose) (HPC) 99 % of control | [20] 89 % of control | [21] 96 % of control

c1ccc2c(c1)[nH]c1c2nc2ccccn21
inactive: [19] 105 % of control and 107 % of control | [1] 105 % of control and 108 % of control and 113 % of control | [2] 124 % of control

COC(=O)[C@H]1[C@H]2CCOC1(c1cc(OC)c(OC)c(OC)c1)c1cc3c(cc1[C@H]2O)OCO3
inactive: dose: 4.5 mg/kg/injection, schedule: Q01DX009 (ip), vehicle: Klucel (hydroxypropylcellulose) (HPC) 102 % of control | dose: 9.0 mg/kg/injection, schedule: Q01DX009 (ip), vehicle: Klucel (hydroxypropylcellulose) (HPC) 104 % of control | dose: 18.0 mg/kg/injection, schedule: Q01DX009 (ip), vehicle: Klucel (hydroxypropylcellulose) (HPC) 96 % of control | dose: 36.0 mg/kg/injection, schedule: Q01DX009 (ip), vehicle: Klucel (hydroxypropylcellulose) (HPC) 100 % of control

Nc1ccccc1Nc1c([N+](=O)[O-])cc(C(F)(F)F)cc1[N+](=O)[O-]
inactive: [15] 103 % of control | [16] 105 % of control | [17] 90 % of control

Cn1c(=O)c2nsnc2n(C)c1=O
inactive: dose: 50.0 mg/kg/injection, schedule: Q04DX002 (ip), vehicle: Klucel (hydroxypropylcellulose) (HPC) 110 % of control | dose: 100.0 mg/kg/injection, schedule: Q04DX002 (ip), vehicle: Klucel (hydroxypropylcellulose) (HPC) 100 % of control and 110 % of control | dose: 200.0 mg/kg/injection, schedule: Q04DX002 (ip), vehicle: Klucel (hydroxypropylcellulose) (HPC) 107 % of control

Cc1cc(C(C(N)=O)c2ccccc2)ccc1N(CCCl)CCCl (centres undefined)
active: dose: 9.37 mg/kg/injection, schedule: Q01DX009 (ip), vehicle: other 168 % of control | dose: 18.75 mg/kg/injection, schedule: Q01DX009 (ip), vehicle: other 195 % of control | [22] 184 % of control | [23] 176 % of control
inactive: [24] 97 % of control

COc1ccccc1CNCCCCCCNCCSSCCNCCCCCCNCc1ccccc1OC
inactive: dose: 12.5 mg/kg/injection, schedule: Q04DX002 (ip), vehicle: suspension in saline 102 % of control | dose: 25.0 mg/kg/injection, schedule: Q04DX002 (ip), vehicle: suspension in saline 97 % of control

COC(=O)COC(=O)CCCCC(=O)OCC(=O)OC
inactive: [12] 111 % of control | [13] 109 % of control | [14] 103 % of control

O=C(CCl)NC(Cc1cccs1)C(=O)O (centres undefined)
inactive: [12] 98 % of control | [13] 93 % of control | [14] 96 % of control

CC1=C(CCC(C)NCc2ccc(OCCCN3CCCCC3)cc2)C(C)(C)CCC1 (centres undefined)
inactive: dose: 6.25 mg/kg/injection, schedule: Q01DX005 (ip), vehicle: Klucel (hydroxypropylcellulose) (HPC) 104 % of control | [18] 98 % of control | [19] 104 % of control

CC(=O)NC1CCCCC1C1CCC([N+](=O)[O-])CC1 (centres undefined)
inactive: [9] 101 % of control | [10] 99 % of control | [11] 99 % of control

COc1ccc(C2SCC(=O)N2c2nncs2)cc1F (centres undefined)
inactive: [15] 92 % of control | [16] 96 % of control | [17] 92 % of control

COC(=O)CCCCCCCCCCCCCCCCC(=O)O
inactive: [20] 99 % of control | [21] 94 % of control | dose: 200.0 mg/kg/injection, schedule: Q01DX009 (ip), vehicle: Klucel (hydroxypropylcellulose) (HPC) 93 % of control

CC(C)Cc1nccs1
inactive: dose: 25.0 mg/kg/injection, schedule: Q01DX009 (ip), vehicle: saline with Tween-80 105 % of control | [3] 105 % of control and 110 % of control | [4] 106 % of control and 117 % of control | [6] 118 % of control

NC1CCCCCCC1
inactive: [25] 94 % of control | dose: 100.0 mg/kg/injection, schedule: Q01DX005 (ip), vehicle: saline 103 % of control | dose: 200.0 mg/kg/injection, schedule: Q01DX005 (ip), vehicle: saline 117 % of control

O=C(O)c1ccc(N=CC2CO2)cc1 (centres undefined)
inactive: [3] 99 % of control | [4] 102 % of control | [6] 87 % of control

Cc1ncc(C(O)c2ccc(Cl)cc2)n1Cc1ccccc1 (centres undefined)
inactive: [26] 96 % of control | [27] 104 % of control | [28] 99 % of control

CS(=O)(=O)CS(=O)(=O)OCCF
active: dose: 12.5 mg/kg/injection, schedule: Q01DX005 (ip), vehicle: saline 188 % of control | dose: 25.0 mg/kg/injection, schedule: Q01DX005 (ip), vehicle: saline 258 % of control and 285 % of control | [25] 285 % of control

O=C(NO)c1ccccc1O
inactive: [4] 110 % of control | [5] 86 % of control | [6] 100 % of control | [7] 90 % of control | dose: 400.0 mg/kg/injection, schedule: Q01DX009 (ip), vehicle: saline with Tween-80 110 % of control | [8] 100 % of control

COc1cc(CC#N)c(S(=O)O)cc1OC
inactive: [3] 116 % of control | [4] 109 % of control | [6] 114 % of control

CCOc1ccc(/C=N/NC(=O)CC2CCCCC2)cc1OC
inactive: [26] 90 % of control | [27] 87 % of control | [28] 95 % of control

CCCC12C=C(OC)C(=O)C=C1OC(c1ccc3c(c1)OCO3)C2C (centres undefined)
inactive: dose: 8.75 mg/kg/injection, schedule: Q01DX005 (ip), vehicle: Klucel (hydroxypropylcellulose) (HPC) 106 % of control | dose: 17.5 mg/kg/injection, schedule: Q01DX005 (ip), vehicle: Klucel (hydroxypropylcellulose) (HPC) 104 % of control | dose: 35.0 mg/kg/injection, schedule: Q01DX005 (ip), vehicle: Klucel (hydroxypropylcellulose) (HPC) 104 % of control

C=C(Br)c1ccc2c(c1)OCO2
inactive: [26] 106 % of control | [27] 102 % of control | [28] 102 % of control

CC(C)(C)OC(=O)NN=C1CCC(C(C)(C)C)CC1 (centres undefined)
inactive: [22] 100 % of control | [23] 95 % of control | [24] 100 % of control
